One molecule from BindingDB's records for doi:10.1016/s0028-3908(00)00022-8 (University of Frankfurt, 2000) can be followed below.

Experiment [1] concerns the target T1, ATP receptor (Xenopus sp., UniProt F6VH38).
T1 sequence (F6VH38 whole entry): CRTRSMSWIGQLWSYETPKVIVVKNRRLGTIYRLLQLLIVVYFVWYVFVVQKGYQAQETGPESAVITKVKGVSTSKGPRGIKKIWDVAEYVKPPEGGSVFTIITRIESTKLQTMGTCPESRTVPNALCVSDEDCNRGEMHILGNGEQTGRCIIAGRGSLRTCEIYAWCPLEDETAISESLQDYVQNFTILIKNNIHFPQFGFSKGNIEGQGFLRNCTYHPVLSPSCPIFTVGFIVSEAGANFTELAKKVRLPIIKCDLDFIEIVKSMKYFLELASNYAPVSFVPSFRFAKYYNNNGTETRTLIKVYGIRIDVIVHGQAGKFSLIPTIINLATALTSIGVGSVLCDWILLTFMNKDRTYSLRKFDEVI

In experiment [2] the target is T2, ATP receptor (Xenopus sp., UniProt Q64F95).
T2 sequence (Q64F95 whole entry): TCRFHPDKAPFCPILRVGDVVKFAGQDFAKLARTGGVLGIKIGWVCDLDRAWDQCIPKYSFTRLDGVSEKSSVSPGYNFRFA

A further experiment deals with T3, P2X purinoceptor (Xenopus sp., UniProt Q9DDP1).
T3 sequence (Q9DDP1 whole entry): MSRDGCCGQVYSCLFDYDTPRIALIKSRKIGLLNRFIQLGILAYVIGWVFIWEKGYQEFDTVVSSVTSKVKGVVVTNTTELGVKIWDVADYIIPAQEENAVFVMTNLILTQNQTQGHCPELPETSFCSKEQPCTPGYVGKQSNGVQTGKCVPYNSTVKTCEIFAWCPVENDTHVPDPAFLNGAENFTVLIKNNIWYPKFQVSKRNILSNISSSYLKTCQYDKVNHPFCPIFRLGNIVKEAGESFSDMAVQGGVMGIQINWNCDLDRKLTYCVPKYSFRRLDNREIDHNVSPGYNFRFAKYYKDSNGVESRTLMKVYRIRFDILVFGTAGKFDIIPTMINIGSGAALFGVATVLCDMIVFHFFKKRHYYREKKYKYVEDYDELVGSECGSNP

For the molecule `O=C(Nc1ccc(C(=O)Nc2ccc(C(=O)Nc3ccc(S(=O)(=O)O)c4cc(S(=O)(=O)O)cc(S(=O)(=O)O)c34)cc2)cc1)Nc1ccc(C(=O)Nc2ccc(C(=O)Nc3ccc(S(=O)(=O)O)c4cc(S(=O)(=O)O)cc(S(=O)(=O)O)c34)cc2)cc1` [CAS_5311315], the Ki at ATP receptor [1] is 0.77 µM; on ATP receptor [2] it was 1.62 µM; at P2X purinoceptor it was above 10 µM.
